The values that follow come from patent US8703953B2, “Aryl ether-base kinase inhibitors” (Bristol-Myers Squibb Company, priority 2012, dated 2014).

Molecules are shown by their SMILES. pIC50: −log10 of the molar value.

The target of one experiment is T1, GST-Xa-hAAK1 (Homo sapiens, UniProt Q2M2I8).
T1 construct: made in house
Description: AAK1 Kinase Assay (Caliper LabChip, fluoresceinated peptide substrate). In kind it is biochemical. As to conditions: ATP 22 μM. The procedure:
The assays were performed in U-bottom 384-well plates. The final assay volume was 30 μl prepared from 15 μl additions of enzyme and substrates (fluoresceinated peptide (5-FAM)-Aha-[…]-NH2 and ATP) and test compounds in assay buffer (10 mM Tris-HCL pH 7.4, 10 mM MgCl2, 0.01% Tween-20 and 1.0 mM DTT). The reactions were initiated by the combination of bacterially expressed, GST-Xa-hAAK1 with substrates and test compounds. The reactions were incubated at room temperature for 3 hours and terminated by adding 60 μl of 35 mM EDTA buffer to each sample. The reactions were analyzed on the Caliper LabChip 3000 (Caliper, Hopkinton, Mass.) by electrophoretic separation of the fluorescent substrate and phosphorylated product. […] The final concentration of reagents in the assays are ATP, 22 μM; (5-FAM)-Aha-[…]-NH2, 1.5 μM; GST-Xa-hAAK1, 3.5 nM; and DMSO, 1.6%. Dose response curves were generated to determine the concentration required inhibiting 50% of kinase activity (IC50). Compounds were dissolved at 10 mM in dimethylsulfoxide (DMSO) and evaluated at eleven concentrations. IC50 values were derived by non-linear regression analysis.

The target in another experiment is T2, AAK1 (full length human) (Homo sapiens, UniProt Q2M2I8).
T2 construct: HA; expressed in transfected cells; host or cells: HEK293F
T2 sequence (Q2M2I8 whole entry): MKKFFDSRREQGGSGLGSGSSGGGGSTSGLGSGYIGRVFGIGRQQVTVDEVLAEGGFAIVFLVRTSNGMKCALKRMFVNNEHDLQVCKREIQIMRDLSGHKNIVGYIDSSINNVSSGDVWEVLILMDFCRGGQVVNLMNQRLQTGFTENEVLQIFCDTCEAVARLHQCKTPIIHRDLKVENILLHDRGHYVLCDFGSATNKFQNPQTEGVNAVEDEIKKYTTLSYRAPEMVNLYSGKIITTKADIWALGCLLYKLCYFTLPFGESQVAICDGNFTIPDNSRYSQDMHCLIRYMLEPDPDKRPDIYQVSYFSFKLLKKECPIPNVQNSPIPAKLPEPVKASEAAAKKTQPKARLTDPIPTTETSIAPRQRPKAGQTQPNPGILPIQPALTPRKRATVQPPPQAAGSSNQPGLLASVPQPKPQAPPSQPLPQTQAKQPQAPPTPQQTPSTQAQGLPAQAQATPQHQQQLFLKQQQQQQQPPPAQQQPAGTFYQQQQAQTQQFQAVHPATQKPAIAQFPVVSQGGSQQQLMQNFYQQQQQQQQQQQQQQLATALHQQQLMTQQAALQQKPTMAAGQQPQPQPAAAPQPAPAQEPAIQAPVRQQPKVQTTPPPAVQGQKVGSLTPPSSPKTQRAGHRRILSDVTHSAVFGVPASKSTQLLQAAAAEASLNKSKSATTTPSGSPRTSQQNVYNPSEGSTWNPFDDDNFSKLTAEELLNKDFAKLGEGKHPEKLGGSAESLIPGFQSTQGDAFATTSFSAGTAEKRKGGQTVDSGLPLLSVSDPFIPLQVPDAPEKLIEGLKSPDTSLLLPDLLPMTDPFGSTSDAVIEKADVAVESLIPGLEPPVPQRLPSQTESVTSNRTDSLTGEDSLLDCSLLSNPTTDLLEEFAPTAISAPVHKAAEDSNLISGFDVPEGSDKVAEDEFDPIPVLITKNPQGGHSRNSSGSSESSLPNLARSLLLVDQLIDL
In words: HEK281 Cell-Based Assay (HEK293F cells transfected with AAK1 and AP2M1; phospho-mu2 Western blot). As to conditions: 3 h. The procedure:
HEK293F cells were cultured in media containing DMEM (Gibco, cat. #11965), 10% FBS (SAFC Biosciences, cat. #12103C), 1× GPS (glutamine, penicillin and streptomycin). On day one, cells were plated on a 10 cm dish so that they are ˜80% confluent at time of transfection. Roughly 12 million cells were in a 10 cm dish at time of transfection. On day two, each dish was transfected with 48 ug DNA and 144 μl Lipofectamine 2000 (Invitrogen, cat. #11668-019). The DNA was comprised of a mixture (per 10 cm dish) containing 3 ug AAK1/HA/pIRES (full length human, NCBI accession no. NP_055726.2), 45 μg Flag/AP2MI/pcDNA (full length human), and 1.5 ml OPTI-MEM. The Lipofectamine 2000 is made up of a mixture (per 10 cm dish) containing 144 μl Lipofectamine 2000 and 1.5 ml OPTI-MEM. Each mixture was transferred to individual 15 ml tubes and incubated at RT for 5 minutes, and then the two mixes were combined and incubated at RT for 20 minutes. Growth media was then aspirated from each 10 cm plate and replaced with 10 ml of DMEM+10% FBS (no GPS). Finally, 3 ml DNA/Lipofectamine mix was added to each 10 cm dish and mix gently followed by incubate of plate overnight at 37° C. and 5% CO2.
On day three, compounds were diluted in 100% DMSO at 1000× final concentration, followed by 3-fold serial dilutions for a total of 5 concentrations tested. Four compounds were tested per 10 cm dish. One ul of each compound dilution was then pipetted into a deep-well, 96-well plate, followed by addition of 500 μl DMEM+0.5% FBS into each well for a 2× final concentration of each compound. Cells were resuspended in a 10 cm dish by simple pipetting (HEK293 cells come off the plate that easy at this point) and then transferred to a 50 ml conical tube and pelleted by centrifugation at 1000 rpm for 5 min. Cell pellets were then resuspended in 2.75 ml DMEM+0.5% FBS per 10 cm dish and 100 μl of cell suspension transferred into each well of 96-well TC plate. Finally, 100 μl of 2× compound diluted in DMEM+0.5% FBS was then added into wells containing cell suspension for a 1× final concentration. Plates were then incubated at 37° C. and 5% CO2 for 3 hours followed by transferring of cell suspensions from each well into 12-tube PCR strips. The PCR strips were spun in a tip rack at 1000 rpm for 5 minutes to pellet cells and media was then removed by pipetting without disturbing the cell pellet.
To prepare for Western Blot analysis, cell pellets were resuspend in 40 ul 1× LDS-PAGE sample buffer (Invitrogen, cat. #NP0008)+2× Halt phophatase and protease inhibitor cocktail (Thermo Scientific, cat. #1861284), followed by sonicating each with microtip sonicator set at 5 for 8-10 seconds. Five ul of 10× NuPage Sample Reducing Agent (with […]) was to each sample followed by heat denaturing at 70C for 10 min on PCR machine. A total of 10 μl per sample was loaded into each lane of a 4-20% Tris-Glycine Criterion 26-well gel (Biorad, cat. #345-0034) for the phospho-mu2 blot and 10 μl per lane in a 4-12% Bis-Tris (+MES buffer) NuPAGE 26-well gel (Invitrogen, cat. #WG1403BX10) for the mu2 blot. For controls, 2 ng of phospho-mu2 or 20 ng mu2/Flag proteins were loaded in the last well of each gel. After SDS-PAGE, samples on each gel were transferred to PVDF membrane using an iBlot and membranes were blocked for one hour in TBST+5% milk, followed by wash 3× for 5-10 min with TBST. Criterion gels were probed with rabbit anti-phospho-mu2 (1:5000; a rabbit polyclonal antibody produced by New England Peptide and affinity purified at Lexicon) in TBST+5% BSA, whereas, NuPAGE gels were probed with mouse anti-Flag (1:500; Sigma, cat. #F1804) in TBST+5% milk, and these primary antibodies were incubated overnight at 4° C. on a rocker. […]

T1 sequence (Q2M2I8 whole entry): as above

On to `CC(=O)Nc1cc2c(cn1)COc1cc(OC[C@@H](N)CC(C)C)ccc1-2` [Example 18, (S)-N-(8-(2-amino-4-methylpentyloxy)-5H-chromeno[3,4-c]pyridin-2-yl)acetamide], for which the pIC50 on GST-Xa-hAAK1 (listed as IC50 ranges) was 8.00 to 9.00; at AAK1 (full length human) (listed as IC50 ranges), 7.00 to 8.00.
Regarding `CC(=O)Nc1cc2c(cn1)COc1cc(OC[C@@H](N)CC(C)C)c(Cl)cc1-2` [Example 32, (S)-N-(8-((2-amino-4-methylpentyl)oxy)-9-chloro-5H-chromeno[3,4-c]pyridin-2-yl)acetamide], the pIC50 at GST-Xa-hAAK1 (numeric values) is 7.18; on AAK1 (full length human) (numeric values) it was less than 7.00.
In the case of `CC(C)C[C@H](N)COc1ccc2c(c1)OCc1cnc(N)cc1-2` [Example 33, (S)-8-(2-amino-4-methylpentyloxy)-5H-chromeno[3,4-c]pyridin-2-amine], the pIC50 on GST-Xa-hAAK1 (listed as IC50 ranges) and on AAK1 (full length human) (listed as IC50 ranges) was 7.00 to 8.00 throughout.
On to `CC(=O)Nc1cc2c(cn1)COc1c-2ccc(OC[C@@H](N)CC(C)C)c1C` [Example 35, (S)-N-(8-((2-amino-4-methylpentyl)oxy)-7-methyl-5H-chromeno[3,4-c]pyridin-2-yl)acetamide], for which the negative logarithm of the IC50 (pIC50) at GST-Xa-hAAK1 (listed as IC50 ranges) and on AAK1 (full length human) (listed as IC50 ranges) was greater than 9.00 throughout.
In the case of `COc1c(OC[C@@H](N)CC(C)C)ccc2c1OCc1cnc(NC(C)=O)cc1-2` [Example 37, (S)-N-(8-((2-amino-4-methylpentyl)oxy)-7-methoxy-5H-chromeno[3,4-c]pyridin-2-yl)acetamide], the values for the pIC50 at GST-Xa-hAAK1 (listed as IC50 ranges) and at AAK1 (full length human) (listed as IC50 ranges) were 7.00 to 8.00 and 8.00 to 9.00, respectively.
For `CC(=O)Nc1cc2c(cn1)COc1c-2ccc(OC[C@@H](N)CC(C)C)c1C(F)F` [Example 38, (S)-N-(8-(2-amino-4-methylpentyloxy)-7-(difluoromethyl)-5H-chromeno[3,4-c]pyridin-2-yl)acetamide] the same measures were greater than 9.00 and 8.00 to 9.00.
With `CC(=O)Nc1cc2c(cn1)COc1c-2ccc(OC[C@@H](N)CC(C)C)c1F` [Example 41, (S)-N-(8-((2-amino-4-methylpentyl)oxy)-7-fluoro-5H-chromeno[3,4-c]pyridin-2-yl)acetamide], the pIC50 is 9.52 on GST-Xa-hAAK1 (numeric values) and 8.68 on AAK1 (full length human) (numeric values).
For `CC(C)C[C@H](N)COc1ccc2c(c1)OCc1cnc(NC(=O)C3CC3)cc1-2` [Example 42, (S)-N-(8-(2-amino-4-methylpentyloxy)-5H-chromeno[3,4-c]pyridin-2-yl)cyclopropanecarboxamide] the same measures were 9.30 and 8.68.
Take `COC(=O)Nc1cc2c(cn1)COc1cc(OC[C@@H](N)CC(C)C)ccc1-2` [Example 43, (S)-methyl 8-(2-amino-4-methylpentyloxy)-5H-chromeno[3,4-c]pyridin-2-ylcarbamate]: the negative-log IC50 (pIC50) at GST-Xa-hAAK1 (listed as IC50 ranges) and on AAK1 (full length human) (listed as IC50 ranges) was 8.00 to 9.00 each time.
